# Measured values taken from patent US20140051762A1, “POLYCATIONIC COMPOUNDS AND USES THEREOF” (priority 2004, published 2014).
# Where “and” joins values, the source holds several entries; their conditions need not be identical. Equal entries are not always repeated.
# Columns and labels:
# Factor Xa [1] = test: anti-heparin assay, % Factor Xa inhibition at single concentration (chromogenic substrate S-2765); assay type: biochemical; conditions: Single concentration (10 ug/ml)
# Method: (§1) The following example illustrates the heparin antagonistic effects of polycationic compounds of the present invention. To determine the anti-heparin activity of the polycationic compounds an assay measuring the percent inhibition using a fixed concentration of polycationic compound or concentrations of polycationic compounds causing lysis of 50% of human red blood cells were conducted.
# (§2) 10 IU of anti-thrombin was dissolved in 10 ml of buffer, resulting in a 1 IU/ml stock solution (250×) of the anti-thrombin. The 1 IU/ml (250×) stock solution of anti-thrombin and a 336 mM stock solution of NaCl were diluted into a total volume of 50 μl buffer so that the final anti-thrombin concentration was 0.004 IU/sample well and the NaCl was 150 mM/sample well. 1 μl of the compound to be tested, final concentration 10 μg/ml (corresponding to 0.5 logarithmic antagonist dilution) is added to the sample well. The samples are mixed and allowed to incubate at room temperature for 20 minutes. 50 μl of factor Xa dissolved in buffer is added to the sample well to a final concentration of 0.14 knat/well (2 μl of the 7.1 kna/1 ml stock solution to a final sample well buffer volume of 100 μl). The samples were mixed and further incubated at room temperature for 10 minutes. 10 μl of a 4 mM stock solution of the substrate S-2765 was added to each sample well for a final concentration of 0.4 mM in each sample well. The samples were mixed and hydrolyses of the chromogenic substrate Z-D-Arg-Gly-Arg-pNA (S-2765), thus liberating the chromophoric group pNA (p-nitroaniline), was monitored at 405 nm. The samples were mixed every 30 seconds to maintain a uniform mixture. ThermoLabsystems Multiskan Spectrum spectrophotometer was used to measure the absorbance spectrums. The increase in absorbance was proportional to the enzyme (factor Xa) activity. The % inhibition of factor Xa was determined using a standard curve.
# human red blood cells = test: lysis of 50% of human red blood cells (HC50); assay type: cell-based
# Method: as §1
# (§3) Factor Xa Inhibition: EC50. To determine the concentration of polycationic compound that causes about 50% […], fixed heparin concentrations were used and different amounts of heparin antagonists were added.
# Factor Xa [2] = test: Factor Xa inhibition EC50 (fixed heparin concentrations, different amounts of heparin antagonist); assay type: biochemical; conditions: read-out: FactorXa Inhibition: EC50
# Method: as §1, §2, §3
# [3] = tested on: FGF2-induced angiogenesis in the CAM model; test: FGF2-induced angiogenesis in the chick chorioallantoic membrane (CAM) model; assay type: in vivo, chick embryo; conditions: for Mean % inhibition ± SEM: Table 4
# Method: The following example illustrates the anti-angiogenic effect of exemplary polycationic compounds of the present invention. Ten-day old embryos were purchased from Spafas, Inc. (Preston, Conn.) and were incubated at 37° C. with 55% relative humidity. In the dark with the help of a candling lamp, a small hole was punctured in the shell concealing the air sac with a hypodermic needle. A second hole was punctured in the shell on the broadside of the egg directly over an avascular portion of the embryonic membrane, as observed during candling. A false air sac was created beneath the second hole by the application of negative pressure to the first hole, which caused the chorioallantoic membrane (CAM) to separate from the shell. A window, approximately 1.0 cm^2, was cut in the shell over the dropped CAM with the use of a small crafts grinding wheel (Dremel, Division of Emerson Electric Company Racine, Wis.) which allowed direct access to the underlying CAM. Filter disks of #1 filter paper (Whatman International, United Kingdom) were soaked in 3 mg/mL cortisone acetate (Sigma, St. Louis, Mo.) in a solution of 95% ethanol and water and subsequently air dried under sterile conditions. FGF2 (Life Technologies, Gaithersburg, Md.) was used to grow vessels on the CAMs of 10 day old chick embryos. Sterile filter disks adsorbed with FGF2 dissolved in PBS at 1μg/mL were placed on growing CAMs. […] At 24 h, test compounds or control vehicle was added directly to CAM topically.
# (§4) CAM tissue directly beneath FGF2-saturated filter disk was resected from embryos treated 48 hours prior with test compound or control. Tissues were washed three times with PBS. Sections were placed in a 35-mm petri dish (Nalgen Nunc, Rochester, N.Y.) and examined under a SV6 stereomicroscope (Karl Zeiss, Thornwood, N.Y.) at 50× magnification. Digital images of CAM sections adjacent to filters were collected using a 3-CCD color video camera system (Toshiba America, New York, N.Y.) and analyzed using Image-Pro Plus software (Media Cybernetics, Silver Spring, Md.). Table 4 contains the number of vessel branch points contained in a circular region equal to the area of a filter disk counted for each section.
# as §4, with “48 h” for “48 hours”, “with” for “with test”, “dish (Nalge” for “dish (Nalgen”, “analyzed with the” for “analyzed using”, “Md.).” for “Md.). Table 4 contains the number of vessel branch points contained in a circular region equal to the area of a filter disk counted for each section.”
HC50 (human red blood cells),Molecule,% FactorXa Inhibition (Factor Xa [1]) [%],further results
715 μg/ml and 519 μM,CC(C)(C)c1cc(NC(=O)c2cccc(C(=O)Nc3cc(C(C)(C)C)cc(NC(=O)[C@H](N)CCCNC(=N)N)c3SCCN)c2)c(SCCN)c(NC(=O)[C@H](N)CCCNC(=N)N)c1 [Compound 7],5.506,EC50 (Factor Xa [2]): 3.7 µM
,CN(C)C(NCCSc1c(N)cc(C(C)(C)C)cc1NC(=O)c1cccc(C(=O)Nc2cc(C(C)(C)C)cc(N)c2SCCNC(N(C)C)=[N+](C)C)c1)=[N+](C)C [Compound 22],1.292,
,CC(=O)Nc1cc(C(C)(C)C)cc(NC(=O)c2cccc(C(=O)Nc3cc(C(C)(C)C)cc(NC(C)=O)c3SCCN)c2)c1SCCN [Compound 23],1.224,
,CC(=O)Nc1cc(C(C)(C)C)cc(NC(=O)c2cc(OCCN)cc(C(=O)Nc3cc(C(C)(C)C)cc(NC(C)=O)c3SCCN)c2)c1SCCN [Compound 24],1.835,
">2,000 μg/ml",NCCOc1cc(OCCN)c(C(=O)Nc2cccc(N)c2SCCN)cc1C(=O)Nc1cccc(N)c1SCCN [Compound 25],0,EC50 (Factor Xa [2]): 5.3 µM
">2,000 μg/ml",N=C(N)NCCOc1cc(OCCNC(=N)N)c(C(=O)Nc2cccc(N)c2SCCNC(=N)N)cc1C(=O)Nc1cccc(N)c1SCCNC(=N)N [Compound 27],8.886,"EC50 (Factor Xa [2]): 9.7 µM; % inhibition ± SEM ([3]; Table 3, 0.1 ug + FGF2 (1 ug)): 34 ± 9%; Branch pts ± SEM ([3]; Table 3, 0.1 ug + FGF2 (1 ug)): 144 ± 9"
,N=C(N)NCCCCC(=O)Nc1cccc(NC(=O)c2cc(C(=O)Nc3cccc(NC(=O)NCCCNC(=N)N)c3SCCN)c(OCCN)cc2OCCN)c1SCCN [Compound 28],44.3,
,CC(C)(C)c1cc(N)c(SCCN)c(NC(=O)c2cc(C(=O)Nc3cc(C(C)(C)C)cc(N)c3SCCN)ncn2)c1 [Compound 33],32.02,"% inhibition ± SEM ([3]; Table 3, 1.0 ug + FGF2 (1 ug)): 17 ± 18%; Branch pts ± SEM ([3]; Table 3, 1.0 ug + FGF2 (1 ug)): 160 ± 18"
261 μg/ml and 144 μM,COc1ccc(NC(=O)C(CCCNC(=N)N)NC(=O)c2cc(NC(=O)C(CCCNC(=N)N)NC(=O)c3cc(NC(=O)C(CCCNC(=N)N)NC(=O)c4cc(NC(=O)C(N)CCCNC(=N)N)ccc4OC)ccc3OC)ccc2OC)cc1C(N)=O (stereo not drawn) [Compound 48],,"Mean % inhibition ± SEM ([3]; 1.0 ug + FGF2 (1 ug), n = 8): 16 ± 6%; Mean % inhibition ± SEM ([3]; 3.0 ug + FGF2 (1 ug), n = 8): 38 ± 8%; Mean % inhibition ± SEM ([3]; 10 ug + FGF2 (1 ug), n = 8): 55 ± 7%"
637 μg/ml and 377 μM,COc1ccc(NC(=O)C(CCCCN)NC(=O)c2cc(NC(=O)C(CCCCN)NC(=O)c3cc(NC(=O)C(CCCCN)NC(=O)c4cc(NC(=O)C(N)CCCCN)ccc4OC)ccc3OC)ccc2OC)cc1C(N)=O (stereo not drawn) [Compound 50],,"Mean % inhibition ± SEM ([3]; 1.0 ug + FGF2 (1 ug), n = 8): 21 ± 9%; Mean % inhibition ± SEM ([3]; 3.0 ug + FGF2 (1 ug), n = 8): 42 ± 8%; Mean % inhibition ± SEM ([3]; 10 ug + FGF2 (1 ug), n = 8): 66 ± 7%"
,COC(=O)c1cc(NC(=O)c2cc(NC(=O)c3cc(NC(=O)c4cc(N)ccc4OC)ccc3OCCN)ccc2OC)ccc1OCCN [Compound 52],45.48,
,COC(=O)c1cc(NC(=O)c2cc(NC(=O)c3cc(NC(=O)c4cc(NC(=O)c5cc(NC(=O)c6cc(N)ccc6OC)ccc5OCCN)ccc4OC)ccc3OCCN)ccc2OC)ccc1OCCN [Compound 53],43.03,
,COC(=O)c1cc(OCCN)ccc1NC(=O)c1cc(OCCC(C)C)ccc1NC(=O)c1cc(OCCN)ccc1C(O)O [Compound 54],19.99,
,NCCc1cc(Br)cc(C#Cc2cccc(C#Cc3cc(Br)cc(CCN)c3)c2)c1 [Compound 55],46.5,
,Magainin [reference compound],4.419,
,"fibroblast growth factor 2 [FgF2, reference compound]",,"Branch pts ± SEM ([3]; Table 2, FgF alone 1.0 ug/ml, n = 8): 155 ± 10; Branch pts ± SEM ([3]; Table 3, FgF2 alone 1.0 ug/ml): 177 ± 10"
